Test results from ChEMBL document CHEMBL3885881, “DrugMatrix”.

Species on record: Rattus norvegicus
Experiment: DrugMatrix - Regimen: Daily Repeat
Type: toxicity, organism-based, Sprague-Dawley
Set-up: regimen Daily Repeat, gender Male, age 6-8 weeks
Conditions: in vivo, po, […], route oral GAVAGE; for ABSOLUTE BASOPHIL / ABSOLUTE EOSINOPHIL / ABSOLUTE LYMPHOCYTE / ABSOLUTE MONOCYTE / ABSOLUTE SEGMENTED NEUTROPHIL / BASOPHIL / EOSINOPHIL / ERYTHROCYTE COUNT / HEMATOCRIT / HEMOGLOBIN / LEUKOCYTE COUNT / LYMPHOCYTE / MEAN CORPUSCULAR HEMOGLOBIN / MEAN CORPUSCULAR HEMOGLOBIN CONCENTRATION / MEAN CORPUSCULAR VOLUME / MONOCYTE / NEUTROPHIL / NUCLEATED RED BLOOD CELLS / PLATELET COUNT: tissue Blood; for ALANINE AMINOTRANSFERASE / ALKALINE PHOSPHATASE / ASPARTATE AMINOTRANSFERASE / BLOOD UREA NITROGEN / CARBON DIOXIDE / CHLORIDE / CHOLESTEROL / CREATINE PHOSPHOKINASE / CREATININE / GLUCOSE / LACTATE DEHYDROGENASE / LIPASE / PHOSPHORUS / POTASSIUM / SODIUM / TOTAL BILIRUBIN / TOTAL PROTEIN / URIC ACID: tissue Plasma
[1] = 100 mg/kg, dose level Low, time 7 day
[2] = 700 mg/kg, 72 h, dose level High, time 3 day
[3] = 700 mg/kg, dose level High, time 7 day

Structure (SMILES): Cc1ccc(C)c(OCCCC(C)(C)C(=O)O)c1 [GEMFIBROZIL]
- ABSOLUTE BASOPHIL [1]: 0 CELLS/uL
- ABSOLUTE EOSINOPHIL [1]: 45.5 CELLS/uL
- ABSOLUTE LYMPHOCYTE [1]: 9460.33 CELLS/uL
- ABSOLUTE MONOCYTE [1]: 128.67 CELLS/uL
- ABSOLUTE SEGMENTED NEUTROPHIL [1]: 965.5 CELLS/uL
- BASOPHIL [1]: 0%
- EOSINOPHIL [1]: 0.5%
- ERYTHROCYTE COUNT [1]: 5.75 x10E6/uL
- HEMATOCRIT [1]: 35.7%
- HEMOGLOBIN [1]: 13.7 G/DL
- LEUKOCYTE COUNT [1]: 10.6 x10E3/uL
- LYMPHOCYTE [1]: 89.83%
- MEAN CORPUSCULAR HEMOGLOBIN [1]: 23.82 pg
- MEAN CORPUSCULAR HEMOGLOBIN CONCENTRATION [1]: 38.42 G/DL
- MEAN CORPUSCULAR VOLUME [1]: 62.1 fL
- MONOCYTE [1]: 1.17%
- NEUTROPHIL [1]: 8.5%
- NUCLEATED RED BLOOD CELLS [1]: 0 /100WBC
- PLATELET COUNT [1]: 1237.17 x10E3/uL
- ALANINE AMINOTRANSFERASE [1]: 75.17 u/L
- ALKALINE PHOSPHATASE [1]: 388.67 u/L
- ASPARTATE AMINOTRANSFERASE [1]: 80.67 u/L
- BLOOD UREA NITROGEN [1]: 15.5 mg/dL
- CARBON DIOXIDE [1]: 29.17 mmol/L
- CHLORIDE [1]: 103.5 MEQ/L
- CHOLESTEROL [1]: 70.33 mg/dL
- CREATINE PHOSPHOKINASE [1]: 220 u/L
- CREATININE [1]: 0.26 mg/dL
- GLUCOSE [1]: 138.5 mg/dL
- LACTATE DEHYDROGENASE [1]: 151.33 u/L
- LIPASE [1]: 11.5 u/L
- PHOSPHORUS [1]: 10.83 mg/dL
- POTASSIUM [1]: 6.07 MEQ/L
- SODIUM [1]: 145.42 MEQ/L
- TOTAL BILIRUBIN [1]: 0.15 mg/dL
- TOTAL PROTEIN [1]: 6.55 G/DL
- URIC ACID [1]: 0.9 mg/dL
- ABSOLUTE BASOPHIL [2]: 0 CELLS/uL
- ABSOLUTE EOSINOPHIL [2]: 123.83 CELLS/uL
- ABSOLUTE LYMPHOCYTE [2]: 14360.17 CELLS/uL
- ABSOLUTE MONOCYTE [2]: 300 CELLS/uL
- ABSOLUTE SEGMENTED NEUTROPHIL [2]: 899.33 CELLS/uL
- BASOPHIL [2]: 0%
- EOSINOPHIL [2]: 0.83%
- ERYTHROCYTE COUNT [2]: 5.5 x10E6/uL
- HEMATOCRIT [2]: 34.9%
- HEMOGLOBIN [2]: 13.82 G/DL
- LEUKOCYTE COUNT [2]: 15.68 x10E3/uL
- LYMPHOCYTE [2]: 91.67%
- MEAN CORPUSCULAR HEMOGLOBIN [2]: 25.13 pg
- MEAN CORPUSCULAR HEMOGLOBIN CONCENTRATION [2]: 39.6 G/DL
- MEAN CORPUSCULAR VOLUME [2]: 63.5 fL
- MONOCYTE [2]: 1.83%
- NEUTROPHIL [2]: 5.67%
- NUCLEATED RED BLOOD CELLS [2]: 0 /100WBC
- PLATELET COUNT [2]: 1197.17 x10E3/uL
- ALANINE AMINOTRANSFERASE [2]: 74.67 u/L
- ALKALINE PHOSPHATASE [2]: 606 u/L
- ASPARTATE AMINOTRANSFERASE [2]: 80.5 u/L
- BLOOD UREA NITROGEN [2]: 11.33 mg/dL
- CARBON DIOXIDE [2]: 30.67 mmol/L
- CHLORIDE [2]: 101.5 MEQ/L
- CHOLESTEROL [2]: 61 mg/dL
- CREATINE PHOSPHOKINASE [2]: 247.5 u/L
- CREATININE [2]: 0.21 mg/dL
- GLUCOSE [2]: 143.5 mg/dL
- LACTATE DEHYDROGENASE [2]: 254.17 u/L
- LIPASE [2]: 9.67 u/L
- PHOSPHORUS [2]: 8.5 mg/dL
- POTASSIUM [2]: 6.29 MEQ/L
- SODIUM [2]: 141.78 MEQ/L
- TOTAL BILIRUBIN [2]: 0.32 mg/dL
- TOTAL PROTEIN [2]: 5.85 G/DL
- URIC ACID [2]: 1.33 mg/dL
- ABSOLUTE BASOPHIL [3]: 0 CELLS/uL
- ABSOLUTE EOSINOPHIL [3]: 34.5 CELLS/uL
- ABSOLUTE LYMPHOCYTE [3]: 11212.67 CELLS/uL
- ABSOLUTE MONOCYTE [3]: 304.17 CELLS/uL
- ABSOLUTE SEGMENTED NEUTROPHIL [3]: 1732 CELLS/uL
- BASOPHIL [3]: 0%
- EOSINOPHIL [3]: 0.5%
- ERYTHROCYTE COUNT [3]: 5.46 x10E6/uL
- HEMATOCRIT [3]: 32.9%
- HEMOGLOBIN [3]: 12.75 G/DL
- LEUKOCYTE COUNT [3]: 13.28 x10E3/uL
- LYMPHOCYTE [3]: 85.5%
- MEAN CORPUSCULAR HEMOGLOBIN [3]: 23.43 pg
- MEAN CORPUSCULAR HEMOGLOBIN CONCENTRATION [3]: 38.82 G/DL
- MEAN CORPUSCULAR VOLUME [3]: 60.37 fL
- MONOCYTE [3]: 2.17%
- NEUTROPHIL [3]: 11.83%
- NUCLEATED RED BLOOD CELLS [3]: 0 /100WBC
- PLATELET COUNT [3]: 1336.17 x10E3/uL
- ALANINE AMINOTRANSFERASE [3]: 90.83 u/L
- ALKALINE PHOSPHATASE [3]: 504.17 u/L
- ASPARTATE AMINOTRANSFERASE [3]: 94.83 u/L
- BLOOD UREA NITROGEN [3]: 12.17 mg/dL
- CARBON DIOXIDE [3]: 31.17 mmol/L
- CHLORIDE [3]: 101.17 MEQ/L
- CHOLESTEROL [3]: 60.5 mg/dL
- CREATINE PHOSPHOKINASE [3]: 391.67 u/L
- CREATININE [3]: 0.29 mg/dL
- GLUCOSE [3]: 135.67 mg/dL
- LACTATE DEHYDROGENASE [3]: 275.5 u/L
- LIPASE [3]: 12 u/L
- PHOSPHORUS [3]: 9.5 mg/dL
- POTASSIUM [3]: 5.98 MEQ/L
- SODIUM [3]: 142.85 MEQ/L
- TOTAL BILIRUBIN [3]: 0.22 mg/dL
- TOTAL PROTEIN [3]: 6.58 G/DL
- URIC ACID [3]: 0.87 mg/dL
